Experimental data from ChEMBL document CHEMBL5537169, “Structure-Activity Relationships and Discovery of (S)-6-Isopropyl-2-methoxy-3-(3-methoxypropoxy)-10-oxo-5,10-dihydro-6H-pyrido[1,2-h][1,7]naphthyridine-9-carboxylic Acid (AB-452), a Novel Orally Available HBV RNA Destabilizer” (J Med Chem, 2024).
≈ marks a conversion by molar mass, not a printed value. Calls of active or inactive are those of the source. The rule behind the calls is not given here.

Columns and labels:
[1] = AUCinfinity in CD-1 mouse at 2 mg/kg,iv measured at 0.083 to 24 hrs post administration by LC-MS/MS analysis; format: ADME, organism-based; details: in vivo, time 0.083-24 hrs
[2] = Apparent volume of distribution at steady state in Sprague-Dawley rat at 2 mg/kg,iv measured at 0.083 to 24 hrs post administration by LC-MS/MS analysis; format: ADME, organism-based; details: in vivo, time 0.083-24 hrs, read-out: Vdss(app)
[3] = Drug accumulation in Sprague-Dawley rat liver assessed as fold change in drug uptake at 10 mg/kg,po measured at 0.083 to 24 hrs post administration by LC-MS/MS analysis; format: ADME, organism-based; details: in vivo, time 0.083-24 hrs
[4] = Drug accumulation in CD-1 mouse plasma assessed as fold change in drug uptake at 10 mg/kg,po measured at 0.083 to 24 hrs post administration by LC-MS/MS analysis; format: ADME, organism-based; details: in vivo, time 0.083-24 hrs
[5] = Cmax in CD-1 mouse at 2 mg/kg,iv measured at 0.083 to 24 hrs post administration by LC-MS/MS analysis; format: ADME, organism-based; details: in vivo, time 0.083-24 hrs
[6] = Cmax in Sprague-Dawley rat at 10 mg/kg,po measured at 0.083 to 24 hrs post administration by LC-MS/MS analysis; format: ADME, organism-based; details: Sprague-Dawley, in vivo, time 0.083-24 hrs, read-out: Cmax
[7] = Half life in CD-1 mouse at 2 mg/kg,iv measured at 0.083 to 24 hrs post administration by LC-MS/MS analysis; format: ADME, organism-based; details: in vivo, time 0.083-24 hrs
[8] = Drug accumulation in Sprague-Dawley rat plasma assessed as fold change in drug uptake at 10 mg/kg,po measured at 0.083 to 24 hrs post administration by LC-MS/MS analysis; format: ADME, organism-based; details: in vivo, time 0.083-24 hrs
[9] = Clearance in Sprague-Dawley rat at 2 mg/kg,iv measured at 0.083 to 24 hrs post administration by LC-MS/MS analysis; format: ADME, organism-based; details: in vivo, time 0.083-24 hrs
[10] = Apparent volume of distribution at steady state in CD-1 mouse at 2 mg/kg,iv measured at 0.083 to 24 hrs post administration by LC-MS/MS analysis; format: ADME, organism-based; details: in vivo, time 0.083-24 hrs, read-out: Vdss(app)
[11] = Clearance in CD-1 mouse liver microsomes at 0.3 uM pre-incubated for 10 mins followed by NADPH addition incubated for 60 mins by LC-MS/MS analysis; format: ADME, Microsome; details: time 70 min, read-out: CLH
[12] = Drug accumulation in CD-1 mouse liver assessed as fold change in drug uptake at 10 mg/kg,po measured at 0.083 to 24 hrs post administration by LC-MS/MS analysis; format: ADME, organism-based; details: in vivo, time 0.083-24 hrs
[13] = AUCinfinity in Sprague-Dawley rat at 2 mg/kg,iv measured at 0.083 to 24 hrs post administration by LC-MS/MS analysis; format: ADME, organism-based; details: Sprague-Dawley, in vivo, time 0.083-24 hrs
[14] = Cardiotoxicity in Langendorff-perfused New Zealand White rabbit heart assessed as decrease in left ventricular pressure at 10 uM incubated for 45 mins by ECG analysis; format: toxicity, tissue-based, Oryctolagus cuniculus; parameters: scale not given: the % may be the effect or the level left; details: 0.75 h
[15] = Cmax in Sprague-Dawley rat at 2 mg/kg,iv measured at 0.083 to 24 hrs post administration by LC-MS/MS analysis; format: ADME, organism-based; details: in vivo, time 0.083-24 hrs
[16] = Cardiotoxicity in Langendorff-perfused New Zealand White rabbit heart assessed as increase in PR interval incubated for 45 mins by ECG analysis; format: toxicity, tissue-based, Oryctolagus cuniculus; details: 0.75 h
[17] = Clearance in human liver microsomes at 0.3 uM pre-incubated for 10 mins followed by NADPH addition incubated for 60 mins by LC-MS/MS analysis; format: ADME, Microsome; details: time 70 min, read-out: CLH
[18] = Half life in Sprague-Dawley rat at 2 mg/kg,iv measured at 0.083 to 24 hrs post administration by LC-MS/MS analysis; format: ADME, organism-based; details: in vivo, time 0.083-24 hrs
[19] = Cardiotoxicity in Langendorff-perfused New Zealand White rabbit heart assessed as increase in QRS interval incubated for 45 mins by ECG analysis; format: toxicity, tissue-based, Oryctolagus cuniculus; details: 0.75 h
Hepatitis B virus [20] = assay: Antiviral activity against AAV-Hepatitis B virus infected in C57BL/6 mouse assessed as serum HBsAg level at 10 mg/kg,po administrated once daily for 7 days by enzyme-linked immunoassay; format: functional; details: time 7 day
[21] = Toxicity in rat assessed as NOAEL administrated for 28 days; details: in vivo, time 28 day
Hepatitis B virus [22] = assay: Antiviral activity against AAV-Hepatitis B virus infected in C57BL/6 mouse assessed as serum HBsAg level at 3 mg/kg,po administrated once daily for 7 days by enzyme-linked immunoassay; format: functional; details: time 7 day
Hepatitis B virus [23] = assay: Antiviral activity against AAV-Hepatitis B virus infected in C57BL/6 mouse assessed as liver total HBV RNA level at 3 to 30 mg/kg,po administrated once daily for 7 days by branched DNA assay; format: functional, organism-based; details: dose 3-30 mg/kg, time 7.0 day
[24] = Toxicity in dog assessed as NOAEL administrated for 28 days; parameters: species or system Canis lupus familiaris; details: in vivo, time 28 day
Hepatitis B virus [25] = assay: Antiviral activity against AAV-Hepatitis B virus infected in C57BL/6 mouse assessed as serum HBsAg level at 30 mg/kg,po administrated once daily for 7 days by enzyme-linked immunoassay; format: functional; details: time 7 day
Hepatitis B virus [26] = assay: Antiviral activity against AAV-Hepatitis B virus infected in human Primary hepatocyte assessed as reduction in HBeAg level measured after 16 days by ELISA; format: functional, organism-based; details: 384 h
HepG2 2.2.15 = assay: Cytotoxicity against human HepG2.2.15 cells by Cell-titer Glo luminescent assay; format: functional
Hepatitis B virus [27] = assay: Antiviral activity against AAV-Hepatitis B virus infected in human Primary hepatocyte assessed as reduction in HBsAg level measured after 16 days by ELISA; format: functional, organism-based; details: 384 h
[28] = Kinetic solubility of compound in PBS at pH 4 incubated for 24 hrs by UPLC-UV analysis; format: physicochemical; details: read-out: Kinetic_solubility
Cytochrome P450 2D6 = Cytochrome P450 2D6 (Homo sapiens, UniProt P10635); assay: Reversible inhibition of CYP2D6 in human liver microsomes using dextromethorphan as substrate pre-incubated for 30 mins followed by NADPH addition and measured after 10 mins by LC-MS/MS analysis; format: ADME, Microsome
Cytochrome P450 2D6, sequence (P10635 whole entry): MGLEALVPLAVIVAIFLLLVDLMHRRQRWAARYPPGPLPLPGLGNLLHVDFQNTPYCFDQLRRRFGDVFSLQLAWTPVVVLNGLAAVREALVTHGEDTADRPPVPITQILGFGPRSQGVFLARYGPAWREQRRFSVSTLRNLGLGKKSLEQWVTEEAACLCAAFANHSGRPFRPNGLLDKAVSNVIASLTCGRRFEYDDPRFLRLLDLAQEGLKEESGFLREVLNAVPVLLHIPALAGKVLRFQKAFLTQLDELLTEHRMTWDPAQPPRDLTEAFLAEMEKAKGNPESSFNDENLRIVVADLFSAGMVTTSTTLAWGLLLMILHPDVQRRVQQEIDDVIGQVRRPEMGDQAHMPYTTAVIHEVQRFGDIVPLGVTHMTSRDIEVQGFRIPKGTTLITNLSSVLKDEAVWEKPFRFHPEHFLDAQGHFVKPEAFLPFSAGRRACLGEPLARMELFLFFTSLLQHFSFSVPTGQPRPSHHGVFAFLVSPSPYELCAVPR

Cytochrome P450 3A4 = Cytochrome P450 3A4 (Homo sapiens, UniProt P08684); assay: Reversible inhibition of CYP3A4 in human liver microsomes using midazolam as substrate pre-incubated for 30 mins followed by NADPH addition and measured after 10 mins by LC-MS/MS analysis; format: ADME, Microsome
Cytochrome P450 3A4, sequence (P08684 whole entry): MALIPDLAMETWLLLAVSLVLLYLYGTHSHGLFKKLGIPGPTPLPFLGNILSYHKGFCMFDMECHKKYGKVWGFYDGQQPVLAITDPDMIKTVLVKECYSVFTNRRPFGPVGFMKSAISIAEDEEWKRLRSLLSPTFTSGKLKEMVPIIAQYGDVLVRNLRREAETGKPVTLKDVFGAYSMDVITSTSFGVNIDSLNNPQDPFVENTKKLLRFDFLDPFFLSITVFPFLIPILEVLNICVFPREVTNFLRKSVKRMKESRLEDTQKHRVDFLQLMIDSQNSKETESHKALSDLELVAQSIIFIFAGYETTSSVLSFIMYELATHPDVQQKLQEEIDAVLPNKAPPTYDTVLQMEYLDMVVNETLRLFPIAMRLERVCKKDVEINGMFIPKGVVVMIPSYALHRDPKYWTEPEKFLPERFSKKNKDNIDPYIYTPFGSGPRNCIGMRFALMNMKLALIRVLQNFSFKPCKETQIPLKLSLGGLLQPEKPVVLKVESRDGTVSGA

Cytochrome P450 2C9 = Cytochrome P450 2C9 (Homo sapiens, UniProt P11712); assay: Reversible inhibition of CYP2C9 in human liver microsomes using diclofenac as substrate pre-incubated for 30 mins followed by NADPH addition and measured after 10 mins by LC-MS/MS analysis; format: ADME, Microsome
Cytochrome P450 2C9, sequence (P11712 whole entry): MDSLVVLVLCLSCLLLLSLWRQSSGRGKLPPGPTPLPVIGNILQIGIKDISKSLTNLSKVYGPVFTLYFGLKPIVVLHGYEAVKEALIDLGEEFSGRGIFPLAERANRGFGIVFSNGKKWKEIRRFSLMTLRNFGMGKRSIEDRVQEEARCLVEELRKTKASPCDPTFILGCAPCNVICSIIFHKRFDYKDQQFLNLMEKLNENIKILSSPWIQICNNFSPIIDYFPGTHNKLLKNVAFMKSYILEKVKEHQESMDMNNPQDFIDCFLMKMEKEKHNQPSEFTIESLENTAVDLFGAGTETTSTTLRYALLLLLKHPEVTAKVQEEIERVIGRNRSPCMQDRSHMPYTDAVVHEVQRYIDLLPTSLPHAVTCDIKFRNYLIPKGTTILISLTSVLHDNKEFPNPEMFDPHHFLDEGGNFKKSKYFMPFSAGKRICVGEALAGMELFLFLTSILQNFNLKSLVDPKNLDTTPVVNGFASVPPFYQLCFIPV

[29] = Efflux ratio of apparent permeability from […] in human Caco-2 cells incubated for 120 mins by LC-MS/MS analysis; format: ADME, cell-based; details: caco-2, 2 h
[30] = Clearance in Beagle dog at 2 mg/kg,iv measured at 0.083 to 24 hrs post administration by LC-MS/MS analysis; format: ADME, organism-based, Canis lupus familiaris; details: in vivo, time 0.083-24 hrs
[31] = Cardiotoxicity in Langendorff-perfused New Zealand White rabbit heart assessed as increase in PR interval upto 10 uM incubated for 45 mins by ECG analysis; format: toxicity, tissue-based, Oryctolagus cuniculus; details: 0.75 h
[32] = Apparent volume of distribution at steady state in Sprague-Dawley rat at 10 mg/kg,po measured at 0.083 to 24 hrs post administration by LC-MS/MS analysis; format: ADME, organism-based; details: in vivo, time 0.083-24 hrs

| microsomal CLint at 0.3 µM [11] | microsomal CLint at 0.3 µM [17] | SMILES | AUC(0-inf) [1] | Vd [2] | fold change (FC) [3] | fold change (FC) [4] | Cmax [5] | Cmax [6] | half-life [7] | fold change (FC) [8] | clearance [9] | Vd [10] | fold change (FC) [12] | AUC(0-inf) [13] | Activity [14] | Cmax [15] | Activity [16] | half-life [18] | Activity [19] | CC50 (HepG2 2.2.15) | other results |
| --- | --- | --- | --- | --- | --- | --- | --- | --- | --- | --- | --- | --- | --- | --- | --- | --- | --- | --- | --- | --- | --- |
| 5 µL/min/mg | 2 µL/min/mg | COCCCOc1cc2c(cc1OC)-c1cc(=O)c(C(=O)O)cn1[C@H](C(C)C)C2 | 1280 ng·h/mL | 0.7 L/kg | 12 | < 1 | 1150 ng/mL | 1190 ng/mL | 1 h | 3.4 | 8.6 mL/min/kg | 1.2 L/kg | < 1 | 4760 ng·h/mL | 20% | 4950 ng/mL | Toxic | 1.3 h | Toxic |  |  |
| 5 µL/min/mg | 5 µL/min/mg | COCCCOc1cc2c(cc1Cl)-c1cc(=O)c(C(=O)O)cn1[C@H](C(C)C)CO2 |  |  |  |  |  |  |  |  |  |  |  |  | 20% |  | Toxic |  | Toxic | 39 µM | solubility kinetic at 24 h [28]: 31 µM (≈ 13.1 µg/mL); IC50 (Cytochrome P450 2D6): > 25 µM; IC50 (Cytochrome P450 3A4): > 25 µM; IC50 (Cytochrome P450 2C9): > 25 µM; Ratio [29]: 1.5; clearance [30]: 10 mL/min/kg; Vdss(app) [32]: 0.4 L/kg |

| SMILES | microsomal CLint at 0.3 µM [11] | microsomal CLint at 0.3 µM [17] | AUC(0-inf) [1] | Vd [2] | fold change (FC) [3] | fold change (FC) [4] | Cmax [5] | Cmax [6] | half-life [7] | fold change (FC) [8] | clearance [9] | Vd [10] | fold change (FC) [12] | AUC(0-inf) [13] | Activity [14] | Cmax [15] | Activity [16] | half-life [18] | Activity [19] | CC50 (HepG2 2.2.15) | other results |
| --- | --- | --- | --- | --- | --- | --- | --- | --- | --- | --- | --- | --- | --- | --- | --- | --- | --- | --- | --- | --- | --- |
| COCCCOc1cc2c(nc1OC)-c1cc(=O)c(C(=O)O)cn1[C@H](C(C)C)C2 | 2 µL/min/mg | 3 µL/min/mg | 1150 ng·h/mL | 0.7 L/kg | 28 | 8.6 | 1180 ng/mL | 1540 ng/mL | 0.9 h | 8.7 | 9.6 mL/min/kg | 1.5 L/kg | 2.6 | 3500 ng·h/mL | 20% | 3240 ng/mL |  | 1.3 h |  | > 50 µM | Activity (Hepatitis B virus [20]): 1.64 log10CFU; NOAEL at 672 h [21]: 150 mg/kg; Activity (Hepatitis B virus [22]): 0.74 log10CFU; Activity (Hepatitis B virus [23]): Active; NOAEL at 672 h [24]: 30 mg/kg; Activity (Hepatitis B virus [25]): 1.78 log10CFU; EC50 (Hepatitis B virus [26]): 0.003 µM; EC50 (Hepatitis B virus [27]): 0.003 µM; solubility kinetic at 24 h [28]: > 200 µM; IC50 (Cytochrome P450 2D6): > 25 µM; IC50 (Cytochrome P450 3A4): > 25 µM; IC50 (Cytochrome P450 2C9): > 25 µM; Ratio [29]: 3.8; clearance [30]: 5.4 mL/min/kg; Activity [31]: Non-Toxic |
